The values below come from ChEMBL document CHEMBL4304804, “Synthesis and biological evaluation of calycanthaceous alkaloid analogs” (Bioorg Med Chem, 2019).

The test system of one assay is Verticillium dahliae. As to the kind of experiment: Antifungal activity against Verticillium dahliae assessed as reduction in fungal cell growth incubated for 48 hrs by serial dilution method. The class given is functional.
Assay [1] has as its system Fusarium oxysporum f. sp. vasinfectum. As to the kind of experiment: Antifungal activity against Fusarium oxysporum sp. vasinfectum assessed as reduction in fungal cell growth incubated for 48 hrs by serial dilution method. The class given is functional.
For another assay, the system named is Cytospora. The assay is described as follows: Antifungal activity against Cytospora juglandis assessed as reduction in fungal cell growth incubated for 48 hrs by serial dilution method. The class given is functional.
The subject of a further assay is Aspergillus flavus. The assay is described as follows: Antifungal activity against Aspergillus flavus assessed as reduction in fungal cell growth incubated for 48 hrs by serial dilution method. The class given is functional.
Another assay has as its system Penicillium citrinum. As to the kind of experiment: Antifungal activity against Penicillium citrinum assessed as reduction in fungal cell growth incubated for 48 hrs by serial dilution method. Type of assay: functional.
The next assay relates to Fusarium oxysporum. The assay is described as follows: Antifungal activity against Fusarium oxysporum assessed as reduction in fungal cell growth incubated for 48 hrs by serial dilution method. Type of assay: functional.
For assay [2], the system named is Colletotrichum orbiculare. The assay is described as follows: Antifungal activity against Colletotrichum orbiculare assessed as reduction in fungal cell growth incubated for 48 hrs by serial dilution method. Type of assay: functional.
A further assay relates to Aspergillus niger. The assay is described as follows: Antifungal activity against Aspergillus niger assessed as reduction in fungal cell growth incubated for 48 hrs by serial dilution method. Type of assay: functional.
The test system of the next assay is Curvularia lunata. The assay is described as follows: Antifungal activity against Curvularia lunata assessed as reduction in fungal cell growth incubated for 48 hrs by serial dilution method. The class given is functional.
The test system of a further assay is Escherichia coli. The assay is described as follows: Antibacterial activity against Escherichia coli assessed as reduction in bacterial cell growth incubated for 24 hrs by filter paper assay. Type of assay: functional.
The test system of the next assay is Pseudomonas aeruginosa. As to the kind of experiment: Antibacterial activity against Pseudomonas aeruginosa assessed as reduction in bacterial cell growth incubated for 24 hrs by filter paper assay. Type of assay: functional.
A further assay relates to Ralstonia solanacearum. As to the kind of experiment: Antibacterial activity against Ralstonia solanacearum assessed as reduction in bacterial cell growth incubated for 24 hrs by filter paper assay. Type of assay: functional.
A further assay relates to Bacillus cereus. As to the kind of experiment: Antibacterial activity against Bacillus cereus assessed as reduction in bacterial cell growth incubated for 24 hrs by filter paper assay. The class given is functional.
The subject of another assay is Staphylococcus aureus. The assay is described as follows: Antibacterial activity against Staphylococcus aureus assessed as reduction in bacterial cell growth incubated for 24 hrs by filter paper assay. The class given is functional.
Another assay concerns Candida. The assay is described as follows: Antifungal activity against […] assessed as reduction in fungal cell growth incubated for 48 hrs by serial dilution method. The class given is functional.
Another assay has as its system Cryptococcus neoformans. The assay is described as follows: Antifungal activity against Cryptococcus neoformans assessed as reduction in fungal cell growth incubated for 48 hrs by serial dilution method. Type of assay: functional.
Another assay has as its system Candida tropicalis. The assay is described as follows: Antifungal activity against Candida tropicalis assessed as reduction in fungal cell growth incubated for 48 hrs by serial dilution method. Type of assay: functional.
The target of the next assay is Acetylcholinesterase (Electrophorus electricus, UniProt O42275). The assay is described as follows: Inhibition of electric eel AChE by Ellman's colorimetry. Background: DTNB colorimetry detects thiols as they appear.
Chain of Acetylcholinesterase (O42275 whole entry): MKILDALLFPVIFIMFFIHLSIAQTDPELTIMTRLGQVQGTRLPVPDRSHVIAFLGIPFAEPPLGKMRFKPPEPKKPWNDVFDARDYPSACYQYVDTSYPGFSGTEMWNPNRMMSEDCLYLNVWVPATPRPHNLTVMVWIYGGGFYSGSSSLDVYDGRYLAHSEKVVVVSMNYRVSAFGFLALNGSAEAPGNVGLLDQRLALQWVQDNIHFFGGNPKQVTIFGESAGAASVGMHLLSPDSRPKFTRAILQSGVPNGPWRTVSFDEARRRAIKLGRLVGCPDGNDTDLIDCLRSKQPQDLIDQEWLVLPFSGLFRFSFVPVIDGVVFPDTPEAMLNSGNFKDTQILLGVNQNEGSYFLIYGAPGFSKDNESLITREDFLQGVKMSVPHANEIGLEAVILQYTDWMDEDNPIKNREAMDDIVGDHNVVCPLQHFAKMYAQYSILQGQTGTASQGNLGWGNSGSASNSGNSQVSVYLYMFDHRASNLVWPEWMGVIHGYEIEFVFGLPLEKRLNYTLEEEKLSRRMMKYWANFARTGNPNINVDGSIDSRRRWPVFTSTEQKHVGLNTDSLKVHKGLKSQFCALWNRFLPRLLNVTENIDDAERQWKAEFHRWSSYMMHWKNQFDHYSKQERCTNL
The target in assay [3] is Acetylcholinesterase (Electrophorus electricus) (UniProt O42275). As to the kind of experiment: Inhibition of electric eel AChE by at 1 mg/ml Ellman's colorimetry relative to control.
Chain of Acetylcholinesterase (Electrophorus electricus) (O42275 24-633 limits assumed): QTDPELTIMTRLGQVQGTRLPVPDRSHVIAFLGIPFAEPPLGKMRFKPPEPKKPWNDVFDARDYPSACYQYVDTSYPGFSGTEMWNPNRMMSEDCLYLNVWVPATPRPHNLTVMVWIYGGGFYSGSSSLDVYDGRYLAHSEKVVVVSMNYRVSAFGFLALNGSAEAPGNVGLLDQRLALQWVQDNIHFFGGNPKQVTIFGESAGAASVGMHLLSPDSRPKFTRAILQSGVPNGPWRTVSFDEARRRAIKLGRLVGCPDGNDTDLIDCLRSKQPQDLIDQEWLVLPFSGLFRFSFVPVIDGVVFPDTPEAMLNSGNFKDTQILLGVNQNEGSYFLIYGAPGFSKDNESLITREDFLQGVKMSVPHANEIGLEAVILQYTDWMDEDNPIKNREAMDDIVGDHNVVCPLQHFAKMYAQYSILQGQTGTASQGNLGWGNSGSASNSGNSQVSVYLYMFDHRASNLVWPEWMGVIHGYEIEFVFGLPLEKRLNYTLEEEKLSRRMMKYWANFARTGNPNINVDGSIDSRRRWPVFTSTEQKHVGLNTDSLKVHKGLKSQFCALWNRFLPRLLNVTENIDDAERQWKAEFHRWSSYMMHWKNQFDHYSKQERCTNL

Converted amounts (≈) assume the structure as drawn. The source made the active and inactive calls. The calls are words filed in the database; no cut-off is given here.

Broadly, the MIC is the least concentration at which growth counts as inhibited. Broadly, the IC50 is the concentration needed to halve the response being measured. Usually inhibition stands for the relative decrease from the control value, in per cent. Low values mean a weak effect, high ones a strong effect. Turning to `CCCCCC(=O)N1CCCC2(O)c3ccccc3N(C)C12` (stereo unspecified), the MIC stood at 125 µg/mL (≈ 413 µM) in the assay on Verticillium dahliae; 250 µg/mL (≈ 827 µM) in assay [1]; 125 µg/mL (≈ 413 µM) in the assay on Cytospora; 250 µg/mL (≈ 827 µM) with Fusarium oxysporum; 250 µg/mL (≈ 827 µM) in assay [2]; 250 µg/mL (≈ 827 µM) in the assay on Aspergillus niger. For the same compound, the MIC in the assay with Curvularia lunata was 250 µg/mL (≈ 827 µM); in the assay with Escherichia coli it was 250 µg/mL (≈ 827 µM); in the assay on Pseudomonas aeruginosa, 250 µg/mL (≈ 827 µM); in the assay on Ralstonia solanacearum, 125 µg/mL (≈ 413 µM); in the assay on Staphylococcus aureus it was 125 µg/mL (≈ 413 µM); in the assay with Cryptococcus neoformans, 250 µg/mL (≈ 827 µM). In addition, the MIC entry with Aspergillus flavus, in the assay on Penicillium citrinum, in the assay with Bacillus cereus, with Candida and in the assay with Candida tropicalis was “inactive” throughout. The same compound showed an IC50 against Acetylcholinesterase of 7.57 µM. Further, in assay [3], the inhibition was above 80%.

Consider `Cc1ccc(S(=O)(=O)N2CCC3(Cc4ccccc4C)c4ccccc4N(Cc4ccccc4C)C23)cc1` (stereo unspecified), for which the MIC with Verticillium dahliae turned out to be 62.5 µg/mL (≈ 120 µM); in [1], 250 µg/mL (≈ 478 µM); in the assay with Cytospora it was 250 µg/mL (≈ 478 µM); with Aspergillus flavus it was 250 µg/mL (≈ 478 µM); in the assay on Fusarium oxysporum, 250 µg/mL (≈ 478 µM); in assay [2] it was 250 µg/mL (≈ 478 µM). For the same compound, the MIC with Aspergillus niger, in the assay on Escherichia coli, in the assay with Ralstonia solanacearum, with Staphylococcus aureus, in the assay on Candida and in the assay with Candida tropicalis was 250 µg/mL (≈ 478 µM) each time. The MIC result in the assay on Penicillium citrinum, in the assay with Curvularia lunata, in the assay on Pseudomonas aeruginosa, with Bacillus cereus and in the assay on Cryptococcus neoformans was “inactive” throughout. Further, at Acetylcholinesterase, it took 0.21 µM to reach half-maximal inhibition (IC50). Further, in assay [3], the inhibition is above 80%.

Consider `Cc1cccc(CN2c3ccccc3C3(Cc4cccc(C)c4)CCN(S(=O)(=O)c4ccccc4)C23)c1` (stereo unspecified), for which the MIC in the assay on Verticillium dahliae worked out at 31.2 µg/mL (≈ 61.4 µM); in assay [1] it was 250 µg/mL (≈ 491 µM); in the assay with Cytospora, 250 µg/mL (≈ 491 µM); in the assay on Aspergillus flavus, 250 µg/mL (≈ 491 µM); in the assay with Fusarium oxysporum it was 250 µg/mL (≈ 491 µM); in assay [2], 250 µg/mL (≈ 491 µM). In addition, the MIC in the assay with Aspergillus niger is 250 µg/mL (≈ 491 µM); in the assay with Escherichia coli it was 250 µg/mL (≈ 491 µM); in the assay with Pseudomonas aeruginosa it was 125 µg/mL (≈ 246 µM); with Bacillus cereus, 125 µg/mL (≈ 246 µM); with Candida, 250 µg/mL (≈ 491 µM); in the assay on Candida tropicalis, 125 µg/mL (≈ 246 µM). Further, the MIC entry in the assay on Penicillium citrinum, in the assay with Curvularia lunata, with Ralstonia solanacearum, in the assay on Staphylococcus aureus and in the assay with Cryptococcus neoformans was “inactive” in each case. On Acetylcholinesterase, this compound gave an IC50 of 2.81 µM. Moreover, the inhibition in [3] is above 80%.

Consider `CN1c2ccccc2C2(O)CCCN(C(=O)c3ccc(F)cc3)C12` (stereo unspecified), for which the MIC (in the assay with Verticillium dahliae; in assay [1]; with Cytospora; in the assay with Aspergillus flavus; in the assay with Penicillium citrinum; in the assay with Fusarium oxysporum) was 250 µg/mL (≈ 766 µM) in each case. Moreover, the MIC amounted to 250 µg/mL (≈ 766 µM) in assay [2]; 125 µg/mL (≈ 383 µM) in the assay with Curvularia lunata; 250 µg/mL (≈ 766 µM) in the assay on Escherichia coli; 250 µg/mL (≈ 766 µM) in the assay with Pseudomonas aeruginosa; 125 µg/mL (≈ 383 µM) in the assay on Ralstonia solanacearum; 250 µg/mL (≈ 766 µM) in the assay with Staphylococcus aureus. For the same compound, the MIC in the assay on Candida tropicalis is 250 µg/mL (≈ 766 µM). For the same compound, the MIC result in the assay on Aspergillus niger, with Bacillus cereus, in the assay with Candida and with Cryptococcus neoformans was “inactive” throughout. Also, at Acetylcholinesterase, the IC50 was 0.000306 µM. Moreover, the inhibition in assay [3] is above 80%.
